Test results reported in ChEMBL document CHEMBL4359904, “Structural tuning of acridones for developing anticancer agents targeting dihydrofolate reductase” (Bioorg Med Chem Lett, 2019).
The source made the active and inactive calls. The rule behind the calls is not given here.

Assays:
SNB-75 = experiment: Growth inhibition of human SNB75 cells incubated for 48 hrs by sulforhodamine B assay; format: functional; conditions: SNB-75, 48 h
C6 [1] = experiment: Cell cycle arrest in rat C6 cells assessed as increase in cell population at sub G0 phase measured after 24 hrs by propidium iodide staining based flow cytometry analysis; format: functional
C6 [2] = experiment: Cell cycle arrest in rat C6 cells assessed as decrease in cell population at G2/M phase measured after 24 hrs by propidium iodide staining based flow cytometry analysis; format: functional
IGROV-1 = experiment: Growth inhibition of human IGROV1 cells at 10^-5 M incubated for 48 hrs by sulforhodamine B assay relative to control; format: functional; conditions: IGROV-1, 48 h, read-out: GI
Dihydrofolate reductase = target: T1, Dihydrofolate reductase (Homo sapiens, UniProt P00374); experiment: Inhibition of human dihydrofolate reductase assessed as inhibition constant by UV-Vis spectra based Benesi Hilebrand equation analysis
T1 sequence (P00374 whole entry): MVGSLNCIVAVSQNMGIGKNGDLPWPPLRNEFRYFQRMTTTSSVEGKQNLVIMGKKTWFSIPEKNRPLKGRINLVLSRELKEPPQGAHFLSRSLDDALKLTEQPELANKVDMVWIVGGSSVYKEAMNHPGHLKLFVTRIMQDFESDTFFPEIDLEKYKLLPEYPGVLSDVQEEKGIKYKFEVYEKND

CCRF-CEM [3] = experiment: Growth inhibition of human CCRF-CEM cells at 10^-5 M incubated for 48 hrs by sulforhodamine B assay relative to control; format: functional; conditions: read-out: GI
HCT-116 = experiment: Growth inhibition of human HCT116 cells incubated for 48 hrs by sulforhodamine B assay; format: functional; conditions: HCT-116, 48 h
EKVX = experiment: Growth inhibition of human EKVX cells incubated for 48 hrs by sulforhodamine B assay; format: functional
OVCAR-8 = experiment: Growth inhibition of human OVCAR8 cells incubated for 48 hrs by sulforhodamine B assay; format: functional; conditions: OVCAR-8, 48 h
RPMI-8226 = experiment: Growth inhibition of human RPMI8226 cells at 10^-5 M incubated for 48 hrs by sulforhodamine B assay relative to control; format: functional; conditions: RPMI-8226, 48 h, read-out: GI
HCC 2998 = experiment: Growth inhibition of human HCC2998 cells incubated for 48 hrs by sulforhodamine B assay; format: functional; conditions: HCC 2998, 48 h
MOLT-4 = experiment: Growth inhibition of human MOLT4 cells at 10^-5 M incubated for 48 hrs by sulforhodamine B assay relative to control; format: functional; conditions: MOLT-4, 48 h, read-out: GI
UO-31 = experiment: Growth inhibition of human UO31 cells incubated for 48 hrs by sulforhodamine B assay; format: functional; conditions: UO-31, 48 h
SR [4] = experiment: Growth inhibition of human SR cells at 10^-5 M incubated for 48 hrs by sulforhodamine B assay relative to control; format: functional; conditions: read-out: GI
DU-145 = experiment: Growth inhibition of human DU145 cells incubated for 48 hrs by sulforhodamine B assay; format: functional; conditions: DU-145, 48 h
OVCAR-5 [5] = experiment: Growth inhibition of human OVCAR5 cells incubated for 48 hrs by sulforhodamine B assay; format: functional; conditions: OVCAR-5, 48 h
CCRF-CEM [6] = experiment: Growth inhibition of human CCRF-CEM cells incubated for 48 hrs by sulforhodamine B assay; format: functional
A549 = experiment: Growth inhibition of human A549/ATCC cells incubated for 48 hrs by sulforhodamine B assay; format: functional; conditions: A549, 48 h
HL-60(TB) = experiment: Growth inhibition of human HL-60(TB) cells incubated for 48 hrs by sulforhodamine B assay; format: functional; conditions: HL-60, 48 h
BT-549 = experiment: Growth inhibition of human BT549 cells incubated for 48 hrs by sulforhodamine B assay; format: functional; conditions: BT-549, 48 h
HOP-62 = experiment: Growth inhibition of human HOP62 cells incubated for 48 hrs by sulforhodamine B assay; format: functional; conditions: HOP-62, 48 h
Malme-3M = experiment: Growth inhibition of human MALME-3M cells incubated for 48 hrs by sulforhodamine B assay; format: functional
KM12 = experiment: Growth inhibition of human KM12 cells incubated for 48 hrs by sulforhodamine B assay; format: functional; conditions: KM12, 48 h
SR [7] = experiment: Growth inhibition of human SR cells incubated for 48 hrs by sulforhodamine B assay; format: functional
SF-295 = experiment: Growth inhibition of human SF295 cells incubated for 48 hrs by sulforhodamine B assay; format: functional; conditions: SF-295, 48 h
SN12C = experiment: Growth inhibition of human SN12C cells incubated for 48 hrs by sulforhodamine B assay; format: functional
MCF7 = experiment: Growth inhibition of human MCF7 cells at 10^-5 M incubated for 48 hrs by sulforhodamine B assay relative to control; format: functional; conditions: MCF7, 48 h, read-out: GI
OVCAR-5 [8] = experiment: Growth inhibition of human OVCAR5 cells at 10^-5 M incubated for 48 hrs by sulforhodamine B assay relative to control; format: functional; conditions: OVCAR-5, 48 h, read-out: GI
NCI-H522 = experiment: Growth inhibition of human NCI-H522 cells incubated for 48 hrs by sulforhodamine B assay; format: functional; conditions: NCI-H522, 48 h
UACC-62 = experiment: Growth inhibition of human UACC62 cells incubated for 48 hrs by sulforhodamine B assay; format: functional; conditions: UACC-62, 48 h
SF-268 = experiment: Growth inhibition of human SF268 cells incubated for 48 hrs by sulforhodamine B assay; format: functional; conditions: SF-268, 48 h
C6 [9] = experiment: Cell cycle arrest in rat C6 cells assessed as cell population at G0/G1 phase measured after 24 hrs by propidium iodide staining based flow cytometry analysis; format: functional
[10] = read-out: pLC50 (the source's name) (converted)
[11] = read-out: LC50 (the source's name)

SMILES: O=c1c2ccccc2n(CC2CO2)c2ccccc12 (racemic)
- GI50 (SNB-75): 269 nM
- CC50 (SNB-75; [10]): 6310 nM
- TGI (SNB-75; read-out: pTGI (converted)): 1860 nM
- Activity (C6 [1]): Active
- inhibition (C6 [2]): Active
- inhibition of growth at 10 µM (IGROV-1): 100%
- Ki (Dihydrofolate reductase): 1600 nM
- inhibition of growth at 10 µM (CCRF-CEM [3]): 93%
- GI50 (HCT-116): 126 nM
- CC50 (HCT-116; [10]): > 100000 nM
- TGI (HCT-116; read-out: pTGI (converted)): 10000 nM
- GI50 (EKVX): 1380 nM
- CC50 (EKVX; [10]): > 100000 nM
- TGI (EKVX; read-out: pTGI (converted)): 5010 nM
- GI50 (OVCAR-8): 148 nM
- CC50 (OVCAR-8; [10]): > 100000 nM
- TGI (OVCAR-8; read-out: pTGI (converted)): 1320 nM
- inhibition of growth at 10 µM (RPMI-8226): 100%
- GI50 (HCC 2998): 275 nM
- CC50 (HCC 2998; [10]): 10000 nM
- TGI (HCC 2998; read-out: pTGI (converted)): 1020 nM
- inhibition of growth at 10 µM (MOLT-4): 100%
- GI50 (UO-31): 178 nM
- TGI (UO-31; read-out: pTGI (converted)): 407 nM
- inhibition of growth at 10 µM (SR [4]): 91%
- GI50 (DU-145): 347 nM
- CC50 (DU-145; [10]): > 100000 nM
- TGI (DU-145; read-out: pTGI (converted)): 1480 nM
- GI50 (OVCAR-5 [5]): 513 nM
- CC50 (OVCAR-5 [5]; [10]): 24000 nM
- TGI (OVCAR-5 [5]; read-out: pTGI (converted)): 3630 nM
- GI50 (CCRF-CEM [6]; read-out: GI50): 70 nM
- CC50 (CCRF-CEM [6]; [11]): > 100000 nM
- GI50 (CCRF-CEM [6]; read-out: pGI50 (converted)): 76.9 nM
- CC50 (CCRF-CEM [6]; [10]): > 100000 nM
- GI50 (A549): 479 nM
- CC50 (A549; [10]): > 100000 nM
- TGI (A549; read-out: pTGI (converted)): 3800 nM
- GI50 (HL-60(TB)): 204 nM
- TGI (HL-60(TB); read-out: pTGI (converted)): 490 nM
- GI50 (BT-549): 339 nM
- CC50 (BT-549; [10]): 66100 nM
- TGI (BT-549; read-out: pTGI (converted)): 3160 nM
- GI50 (HOP-62): 380 nM
- CC50 (HOP-62; [10]): > 100000 nM
- TGI (HOP-62; read-out: pTGI (converted)): 2750 nM
- GI50 (Malme-3M): 589 nM
- CC50 (Malme-3M; [10]): 4900 nM
- TGI (Malme-3M; read-out: pTGI (converted)): 2000 nM
- GI50 (KM12): 269 nM
- CC50 (KM12; [10]): 7760 nM
- TGI (KM12; read-out: pTGI (converted)): 977 nM
- GI50 (SR [7]; read-out: GI50): 50 nM
- CC50 (SR [7]; [11]): > 100000 nM
- GI50 (SR [7]; read-out: pGI50 (converted)): 50.1 nM
- CC50 (SR [7]; [10]): > 100000 nM
- TGI (SR [7]; read-out: pTGI (converted)): 1860 nM
- GI50 (SF-295): 603 nM
- CC50 (SF-295; [10]): > 100000 nM
- TGI (SF-295; read-out: pTGI (converted)): 4270 nM
- GI50 (SN12C): 229 nM
- CC50 (SN12C; [10]): 6170 nM
- TGI (SN12C; read-out: pTGI (converted)): 1200 nM
- inhibition of growth at 10 µM (MCF7): 100%
- inhibition of growth at 10 µM (OVCAR-5 [8]): 100%
- GI50 (NCI-H522): 372 nM
- CC50 (NCI-H522; [10]): 19500 nM
- TGI (NCI-H522; read-out: pTGI (converted)): 1320 nM
- GI50 (UACC-62): 234 nM
- CC50 (UACC-62; [10]): 2400 nM
- TGI (UACC-62; read-out: pTGI (converted)): 603 nM
- GI50 (SF-268; read-out: GI50): 160 nM
- CC50 (SF-268; [11]): > 100000 nM
- GI50 (SF-268; read-out: pGI50 (converted)): 170 nM
- CC50 (SF-268; [10]): > 100000 nM
- TGI (SF-268; read-out: pTGI (converted)): 1120 nM
- Activity (C6 [9]): inactive
